Results: ChEMBL document CHEMBL1201862, “PubChem BioAssay data set” (2004)
Calls of active or inactive are those of the source.

Experiments:
[1] = target: Cytochrome P450 2C9 (Homo sapiens, UniProt P11712)
[2] = target: Cytochrome P450 2C19 (Homo sapiens, UniProt P33261); assay: Cytochrome panel assay with activity outcomes. Panel member name: p450-cyp2c19 Compounds with AC50 equal or less than 10 uM are considered active; format: functional; settings: read-out: AC50
[3] = target: Cytochrome P450 3A4 (Homo sapiens, UniProt P08684);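 also: CYP3A4 tested as one member of a cytochrome P450 panel screen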
Sequence of Cytochrome P450 3A4 (P08684 whole entry): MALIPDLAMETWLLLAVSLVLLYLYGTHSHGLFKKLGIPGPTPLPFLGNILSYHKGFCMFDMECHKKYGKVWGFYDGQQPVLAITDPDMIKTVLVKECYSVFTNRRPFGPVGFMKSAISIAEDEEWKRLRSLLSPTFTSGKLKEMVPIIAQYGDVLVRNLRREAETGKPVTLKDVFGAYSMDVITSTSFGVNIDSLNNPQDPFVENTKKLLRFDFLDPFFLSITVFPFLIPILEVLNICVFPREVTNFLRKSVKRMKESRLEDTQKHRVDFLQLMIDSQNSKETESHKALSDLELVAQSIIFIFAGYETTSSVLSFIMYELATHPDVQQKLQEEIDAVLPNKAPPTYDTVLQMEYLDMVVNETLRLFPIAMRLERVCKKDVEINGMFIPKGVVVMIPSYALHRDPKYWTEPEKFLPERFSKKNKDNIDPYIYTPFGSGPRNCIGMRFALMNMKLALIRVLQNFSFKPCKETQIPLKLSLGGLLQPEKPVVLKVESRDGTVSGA

[4] = Luminescence Cell-Based Dose Response HTS to Identify Activators of Luciferase Translation or Activity in H4 […] Cells. [Related pubchem assays: 1829 (Project Summary), 1814 (Primary HTS)]; format: functional
[5] = tested on: P388/ADR; assay: cells; format: functional; settings: Mus musculus
[6] = tested on: SN12K1; assay: cells; format: functional; settings: Homo sapiens
[7] = tested on: P388; assay: cells; format: functional; settings: Mus musculus
[8] = target: Cytochrome P450 2D6 (Homo sapiens, UniProt P10635);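 also: CYP2D6 member of a cytochrome P450 panel assay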
Sequence of Cytochrome P450 2D6 (P10635 whole entry): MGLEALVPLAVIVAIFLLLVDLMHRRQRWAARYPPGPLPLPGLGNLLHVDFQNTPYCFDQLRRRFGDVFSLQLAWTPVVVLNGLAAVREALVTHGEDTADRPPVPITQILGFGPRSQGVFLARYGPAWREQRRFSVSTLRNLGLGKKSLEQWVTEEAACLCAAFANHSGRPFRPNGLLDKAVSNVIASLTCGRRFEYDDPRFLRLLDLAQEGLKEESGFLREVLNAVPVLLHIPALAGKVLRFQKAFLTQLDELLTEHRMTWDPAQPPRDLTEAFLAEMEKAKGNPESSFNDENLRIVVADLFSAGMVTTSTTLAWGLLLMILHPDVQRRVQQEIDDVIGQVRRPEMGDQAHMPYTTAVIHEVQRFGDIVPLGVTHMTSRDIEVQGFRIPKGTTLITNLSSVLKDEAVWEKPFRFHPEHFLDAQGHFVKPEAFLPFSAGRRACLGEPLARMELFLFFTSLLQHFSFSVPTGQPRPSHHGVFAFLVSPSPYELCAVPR

[9] = target: T1, Cytochrome P450 1A2 (Homo sapiens, UniProt P05177);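 also: PubChem cytochrome P450 panel assay, CYP1A2 panel member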
T1 sequence (P05177 whole entry): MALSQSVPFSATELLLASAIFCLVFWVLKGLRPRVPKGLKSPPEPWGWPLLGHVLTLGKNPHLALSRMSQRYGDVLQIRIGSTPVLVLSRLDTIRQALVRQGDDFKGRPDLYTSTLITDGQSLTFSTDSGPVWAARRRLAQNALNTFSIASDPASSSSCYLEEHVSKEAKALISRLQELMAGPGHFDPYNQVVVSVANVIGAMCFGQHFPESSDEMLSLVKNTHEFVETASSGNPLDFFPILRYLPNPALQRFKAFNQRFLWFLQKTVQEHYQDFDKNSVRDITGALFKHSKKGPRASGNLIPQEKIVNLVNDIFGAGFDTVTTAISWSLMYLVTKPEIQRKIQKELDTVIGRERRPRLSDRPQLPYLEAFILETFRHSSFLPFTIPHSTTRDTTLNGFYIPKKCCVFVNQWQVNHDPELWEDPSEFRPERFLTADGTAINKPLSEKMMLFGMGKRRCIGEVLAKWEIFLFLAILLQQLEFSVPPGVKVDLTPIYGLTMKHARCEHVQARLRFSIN

[10] = cells; format: functional, cell-based
[11] = cells; format: functional, cell-based; remark: listed apart in the source
[12] = target: T2, Protein RecA (Mycobacterium tuberculosis, UniProt P9WHJ3); assay: Fluorescence Cell-Free Homogeneous Dose Retest to Identify Inhibitors of RecA-Intein Splicing Activity. [Related pubchem assays (depositor defined):AID2097, AID2223, AID489010, AID492950]; format: functional
T2 sequence (P9WHJ3 whole entry): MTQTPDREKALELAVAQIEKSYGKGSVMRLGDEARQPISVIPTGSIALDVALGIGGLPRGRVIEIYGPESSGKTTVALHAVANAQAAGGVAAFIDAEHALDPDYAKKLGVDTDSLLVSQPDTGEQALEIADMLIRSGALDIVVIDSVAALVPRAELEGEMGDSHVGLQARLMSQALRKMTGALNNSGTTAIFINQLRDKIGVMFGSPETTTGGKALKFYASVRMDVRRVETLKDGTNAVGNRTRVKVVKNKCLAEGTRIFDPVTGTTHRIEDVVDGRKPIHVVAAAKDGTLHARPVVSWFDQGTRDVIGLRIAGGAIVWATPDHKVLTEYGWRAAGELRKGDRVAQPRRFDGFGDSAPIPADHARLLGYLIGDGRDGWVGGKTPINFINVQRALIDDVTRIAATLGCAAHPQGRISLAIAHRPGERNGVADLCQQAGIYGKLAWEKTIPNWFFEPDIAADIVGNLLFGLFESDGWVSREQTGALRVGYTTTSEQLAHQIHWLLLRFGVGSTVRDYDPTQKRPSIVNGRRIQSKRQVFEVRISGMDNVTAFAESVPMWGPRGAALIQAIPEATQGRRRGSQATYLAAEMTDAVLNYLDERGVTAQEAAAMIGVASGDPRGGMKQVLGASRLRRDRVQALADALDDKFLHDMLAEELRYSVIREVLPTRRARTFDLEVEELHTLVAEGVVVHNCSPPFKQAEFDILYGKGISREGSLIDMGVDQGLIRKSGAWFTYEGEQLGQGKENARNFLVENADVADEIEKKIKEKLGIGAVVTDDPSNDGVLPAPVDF

[13] = target: T3, Replicative DNA helicase DnaB (Mycobacterium tuberculosis, UniProt P9WMR3); assay: DnaB intein splicing inhibitors, dose response, biochemical, cell-free fluorescence (AID 449749); format: functional
T3 sequence (P9WMR3 whole entry): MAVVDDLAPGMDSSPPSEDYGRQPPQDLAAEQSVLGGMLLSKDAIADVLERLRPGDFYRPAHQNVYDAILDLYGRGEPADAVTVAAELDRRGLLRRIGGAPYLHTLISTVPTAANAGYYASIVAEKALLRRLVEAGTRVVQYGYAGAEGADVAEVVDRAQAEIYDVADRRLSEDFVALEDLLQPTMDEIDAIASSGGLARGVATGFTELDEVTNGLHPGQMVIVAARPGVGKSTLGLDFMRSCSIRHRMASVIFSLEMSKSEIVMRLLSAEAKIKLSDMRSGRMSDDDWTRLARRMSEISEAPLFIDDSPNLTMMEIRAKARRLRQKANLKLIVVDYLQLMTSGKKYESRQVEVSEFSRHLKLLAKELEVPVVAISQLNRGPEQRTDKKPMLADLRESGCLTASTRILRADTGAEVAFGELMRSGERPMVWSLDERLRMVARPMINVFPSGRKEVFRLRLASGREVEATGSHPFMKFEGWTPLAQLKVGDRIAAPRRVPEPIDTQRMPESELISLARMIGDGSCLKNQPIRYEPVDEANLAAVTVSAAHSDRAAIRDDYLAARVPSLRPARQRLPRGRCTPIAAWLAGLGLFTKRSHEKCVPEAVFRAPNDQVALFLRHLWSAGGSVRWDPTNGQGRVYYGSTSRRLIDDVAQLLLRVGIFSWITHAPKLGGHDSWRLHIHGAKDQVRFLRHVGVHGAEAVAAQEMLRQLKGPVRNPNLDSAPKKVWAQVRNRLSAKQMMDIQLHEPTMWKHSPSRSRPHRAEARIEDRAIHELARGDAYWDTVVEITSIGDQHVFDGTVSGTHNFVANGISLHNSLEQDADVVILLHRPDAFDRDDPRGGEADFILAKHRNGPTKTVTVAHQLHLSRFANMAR

[14] = viability of uninfected HEp-2 cells – cell-based, HTS, cytotoxicity control for RSV inhibitor project, dose response (AID 2410); format: functional; settings: human respiratory syncytial virus
[15] = viability of PTEN-deleted HCT116 cells – cell-based, HCT116 PTEN knockout, dose response (AID 1047); format: functional;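 also: HCT116 colon tumor cells with PTEN knocked out; cells exposed to compound for 60 hours before readout; potency for loss of cell viability measured by luminescence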

Sequence of Cytochrome P450 2C19 (P33261 whole entry): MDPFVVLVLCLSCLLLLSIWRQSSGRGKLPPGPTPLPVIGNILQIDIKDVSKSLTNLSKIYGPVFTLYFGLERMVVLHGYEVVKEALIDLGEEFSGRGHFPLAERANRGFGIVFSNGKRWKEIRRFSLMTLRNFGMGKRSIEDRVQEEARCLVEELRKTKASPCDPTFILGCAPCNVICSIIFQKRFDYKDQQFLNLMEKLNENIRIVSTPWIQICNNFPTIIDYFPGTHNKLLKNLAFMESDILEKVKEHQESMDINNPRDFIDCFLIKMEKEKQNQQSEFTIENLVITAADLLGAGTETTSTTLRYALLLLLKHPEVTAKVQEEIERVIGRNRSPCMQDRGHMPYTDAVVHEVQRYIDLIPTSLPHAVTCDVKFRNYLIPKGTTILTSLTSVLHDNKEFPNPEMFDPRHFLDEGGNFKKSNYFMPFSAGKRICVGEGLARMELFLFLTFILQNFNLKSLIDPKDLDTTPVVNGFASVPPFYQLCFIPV
Sequence of Cytochrome P450 2C9 (P11712 whole entry): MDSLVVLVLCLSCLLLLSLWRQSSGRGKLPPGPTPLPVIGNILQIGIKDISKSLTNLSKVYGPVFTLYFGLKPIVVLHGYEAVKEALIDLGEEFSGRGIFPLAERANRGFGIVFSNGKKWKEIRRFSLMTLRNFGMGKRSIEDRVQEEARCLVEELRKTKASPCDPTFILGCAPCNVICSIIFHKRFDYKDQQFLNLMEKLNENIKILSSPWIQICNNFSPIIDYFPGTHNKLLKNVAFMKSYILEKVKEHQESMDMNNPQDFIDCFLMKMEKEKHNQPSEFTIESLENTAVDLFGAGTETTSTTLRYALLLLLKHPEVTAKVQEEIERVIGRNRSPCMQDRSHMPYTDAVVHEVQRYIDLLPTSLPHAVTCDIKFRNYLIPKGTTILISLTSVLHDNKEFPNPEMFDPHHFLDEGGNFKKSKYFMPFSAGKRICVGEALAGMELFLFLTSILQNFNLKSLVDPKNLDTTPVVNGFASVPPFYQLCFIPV

| Structure (SMILES) | AC50 [2] | GI50 [5] | GI50 [6] | GI50 [7] | also measured |
| --- | --- | --- | --- | --- | --- |
| Cn1c(=O)c(CCc2ccccc2)nc2cncnc21 | 39.8 µM (inconclusive) |  |  |  | AC50 [1]: 31.6 µM (inconclusive); AC50 [3]: 15.8 µM (inconclusive) |
| CCc1ccc(-c2ccc(C(=O)C(F)(F)F)[nH]2)cc1 | 5.01 µM (inconclusive) |  |  |  | EC50 [4]: 0.19 µM (active) |
| CCCCN(C)/N=N/c1[nH]cnc1C(N)=O |  | > 100 µM (inactive) | 81.7 µM (inactive) | 63.8 µM (inactive) |  |
| C=C1C(=O)[C@@]23CC[C@H]4[C@@](C)(CCC[C@@]4(C)C(=O)OC)[C@@H]2CC[C@]1(O)C3 |  | 0.0483 µM (active) | 1.45 µM (inactive) | 0.153 µM (active) |  |
| C/C=C1\C[C@@H]2C(OC)Nc3cc(O)c(OC)cc3C(=O)N2C1 (some centres not stated) |  | 0.01 µM (active) | 0.01 µM (active) | 0.01 µM (active) |  |
| COc1cccc(C2=NOC(C(=O)NCc3ccccn3)C2)c1 (configuration not stated) | 25.1 µM (inconclusive) |  |  |  | AC50 [3]: 15.8 µM (inconclusive) |
| COc1cccc2c1C(=O)c1c(O)c3c(c(O)c1C2=O)C[C@@](O)(C(=O)CN1CCOCC1)C[C@@H]3OC1CC(N)C(O)C(C)O1 (some centres not stated) |  | 14.7 µM (inactive) | 0.649 µM (active) | 0.361 µM (active) |  |
| COc1cccc(Cn2c(=O)c(-c3ccccc3)nc3cnc(N4CCNCC4)nc32)c1 | 39.8 µM (inconclusive) |  |  |  | AC50 [8]: 10 µM (inconclusive); AC50 [9]: 3.16 µM (inconclusive) |
| COc1ccc(C(=O)Nc2ccc(C(=O)NCCc3ccc(OC)c(OC)c3)cc2)cc1 |  |  |  |  | EC50 [10]: > 350 µM (not active); EC50 [11]: > 350 µM (not active) |
| Nc1nccc2c1ncn2C1C=C(CO)C(O)C1O (configuration not stated) |  | 0.051 µM (active) | 0.811 µM (active) | 0.0982 µM (active) |  |
| Cc1ccc(C(=O)C2C(=O)c3ccccc3C2=O)cc1 | 22.4 µM (inconclusive) |  |  |  | AC50 [9]: 25.1 µM (inconclusive) |
| CC(=O)Nc1cccc(OC(=O)COc2ccc(Br)cc2)c1 |  |  |  |  | EC50 [12]: 20.6 µM (active); AC50 [13]: 11 µM (active) |
| CCCCCC/C=C1\CCC(CN(C)C)C1=O (configuration not stated) |  | 0.673 µM (active) | 2.17 µM (inactive) | 1.08 µM (active) |  |
| O=c1ccn([C@@H]2C=C(CO)[C@@H](O)[C@H]2O)c(=O)[nH]1 |  |  | > 625 µM (inactive) | > 625 µM (inactive) |  |
| CN1C(=O)C(=C(N)COc2ccccc2)C(=O)N(C)C1=O | 15.8 µM (inconclusive) |  |  |  | AC50 [1]: 14.1 µM (inconclusive) |
| Nc1ccc2cn[nH]c2c1 |  |  |  |  | EC50 [12]: 9.02 µM (active); AC50 [13]: 4.45 µM (active) |
| c1ccc(-c2csc3ncn4cnnc4c23)cc1 | 11.2 µM (inconclusive) |  |  |  | AC50 [1]: 20 µM (inconclusive); AC50 [9]: 0.251 µM (inconclusive) |
| Cc1ccc(Oc2nc(-c3ccccc3)ncc2S(C)(=O)=O)cc1 | 3.16 µM (inconclusive) |  |  |  | AC50 [3]: 14.1 µM (inconclusive) |

| Structure (SMILES) | AC50 [2] | GI50 [5] | GI50 [6] | GI50 [7] | also measured |
| --- | --- | --- | --- | --- | --- |
| Nc1ccc2[nH]ncc2c1 |  |  |  |  | EC50 [12]: 36.1 µM (active); AC50 [13]: 324 µM (active) |
| CCN(CCN(C)C)C(=O)C1CCN(S(=O)(=O)c2c(C)noc2/C=C/c2ccccc2F)CC1 |  |  |  |  | EC50 [10]: 21.2 µM (active); EC50 [11]: > 350 µM (not active) |
| Cc1ccc(-n2c(SCC(=O)N3CCOCC3)nnc2-c2cccnc2)cc1 | 22.4 µM (inconclusive) |  |  |  | AC50 [1]: 17.8 µM (inconclusive); AC50 [9]: 10 µM (inconclusive); AC50 [3]: 10 µM (inconclusive) |
| CS(=O)(=O)Nc1cccc(-c2cc(NCc3ccccc3)ncn2)c1 | 39.8 µM (inconclusive) |  |  |  | AC50 [8]: 31.6 µM (inconclusive) |
| CC1=NCCc2cc3[nH]c4ccccc4c3cc21 |  | 9.04 µM (inactive) | 14.6 µM (inactive) | 6.73 µM (inactive) |  |
| CCOC(=O)CN(CC)C(=O)NC12CC3CC(CC(C3)C1)C2 |  | 120 µM (inactive) | 188 µM (inactive) | 175 µM (inactive) |  |
| COc1cc2c(cc1OC)-c1c/c(=N/c3c(C)cc(C)cc3C)n(C)c(=O)n1CC2 | 31.6 µM (inconclusive) |  |  |  | AC50 [8]: 31.6 µM (inconclusive) |
| COc1ccc(C2COc3cc(OC(C)=O)c(OC(C)=O)cc3C2)cc1 (configuration not stated) |  | 2.87 µM (inactive) | 13.9 µM (inactive) | 3.08 µM (inactive) |  |
| CCN(CC)C(=O)CCCOc1ccc(Cl)cc1Cl |  |  |  |  | CC50 [14]: 22.1 µM (active); EC50 [15]: 137 µM (active) |
| CCCN1C(=O)/C(=C(/O)C(=O)OCC)C(c2ccc(OC)c(OC)c2)C1=O (configuration not stated) |  | > 100 µM (inactive) | > 100 µM (inactive) | > 100 µM (inactive) |  |
| Cc1ccc(-c2csc3nc(SCC(=O)N(C)C)n(Cc4ccccc4)c(=O)c23)cc1 |  |  |  |  | EC50 [10]: > 350 µM (not active); EC50 [11]: > 350 µM (not active) |
| CCN(CC)CCCC(C)Nc1c2ccc(Cl)cc2nc2cc(Cl)ccc12 (configuration not stated) |  | 1.71 µM (inactive) | 2.81 µM (inactive) | 1.87 µM (inactive) |  |
| COc1ccc(CC(NC(C)=O)C(=O)NC2CCN(C(=O)Nc3ccc(Cl)cc3)CC2)cc1OC (configuration not stated) |  |  |  |  | EC50 [10]: > 350 µM (not active); AC50 [1]: 12.6 µM (inconclusive); EC50 [11]: > 350 µM (not active) |
| CCOC(=O)N1CCC2(CC1)C(C#N)=C(N)Oc1[nH]nc(C)c12 |  |  |  |  | EC50 [12]: 1.43 µM (active); AC50 [13]: 8.2 µM (active) |
| CCOc1cc(/C=N/NC(=O)c2cccnc2)ccc1OCc1ccc(C(=O)OC)o1 |  |  |  |  | EC50 [10]: > 350 µM (not active); EC50 [11]: > 350 µM (not active) |
| COc1ccc(F)cc1CSc1nnnn1-c1ccc(O)cc1 |  |  |  |  | EC50 [10]: > 350 µM (not active); EC50 [11]: > 350 µM (not active) |
| NCCSCCc1ccccc1 | 3.16 µM (inconclusive) |  |  |  | AC50 [8]: 3.16 µM (inconclusive) |
